In article PMC12381025 (Scientific Reports, 2025):

Columns and labels:
α-amylase = test: α-Amylase inhibition assay; type: biochemical; details: versus standard inhibitor acarbose
α-glucosidase = test: α-Glucosidase inhibition assay; type: biochemical; details: versus standard inhibitor acarbose

`O=C(CCc1nc2ccccc2[nH]1)N/N=C/c1cc2ccccc2nc1SCC(=O)Nc1ccc(F)cc1` [Compound 12n, (E)-2-((3-((2-(3-(1 H-benzo[d]imidazol-2-yl)propanoyl)hydrazineylidene)methyl)quinolin-2-yl)thio)-N-(4-fluorophenyl)acetamide] was tested, and the “fold more potent than acarbose against α-amylase” value (α-amylase) was 23.8 fold and the “fold more potent than acarbose against α-glucosidase” value (α-glucosidase) was 5 fold.
